In patent US12545895B2, “Protection of beta cells from immune attack” (Joslin Diabetes Center, priority 2017, dated 2026):

What follows are compounds tested on NIT-1 cells (assay: Co-culture of NIT-1 cells with NOD splenocytes, active caspase 3 staining). Conditions: 24 hours, 50 splenocytes:1 NIT-1 cell, NIT-1 lines stably expressing gRNA, FIG. 7.
Format: cell-based, mouse
Experimental: FIGS. 6A-6C show are in vitro co-culture system for studying NIT-1 cell death by NOD splenocytes. […] The ratios represent ratios of splenocytes to NIT-1 cells. For example, 50:1 indicates 50-times more splenocytes than NIT-1 cells, while 0:1 indicates NIT-1 cells cultured without splenocytes. P<0.0001=****.
NIT-1 cells were incubated for 24 hours with splenocytes at a ratio of 50 splenocytes:1 NIT-1 cell. P<0.05=*; P<0.01=**, and P<0.001=***.
There is little cell death over 24 hours of NIT-1 cells not co-cultured with NOD splenocytes (0:1 ratio of splenocytes to NIT-1 cells in FIG. 6B), as evidenced by weak staining of active caspase-3. In contrast, NIT-1 cells co-cultured with a high ratio of NOD splenocytes (50:1 ratio of splenocytes to NIT-1 cells in FIG. 6B) show high cell death, as evidenced by strong caspase-3 activity. […] This model can be used to study whether inhibiting or suppressing expression of target genes blocks or inhibits the ability of NOD splenocytes to mediate NIT-1 cell death over time.
“SEQ ID No: 33: second gRNA targeting mouse Men1, sequence GCTGTATGACCTCGGACATC (listed as DNA, chemistry not fully specified)” was tested, and the “NIT-1 cell death mediated by NOD splenocytes (activated caspase 3)” value was “significantly decreased”.
For “SEQ ID No: 23: gRNA targeting mouse Men1, sequence CACGCCCGAGCTGTCCAGTT (listed as DNA, chemistry not fully specified)”, the “NIT-1 cell death mediated by NOD splenocytes (activated caspase 3)” value was “significantly decreased”.

These compounds were tested on NIT-1 beta cells (assay: Thapsigargin-induced ER stress, cell viability by MTT assay). Conditions: control NIT-1 cells, thapsigargin at different dosages, 3 days.
Format: cell-based, mouse
Text: NIT-1 beta cells were genetically modified at two genes—1) Rnls; and 2) Zbed3 with CRISPR/Cas9 and guide RNAs (gRNAs) targeting Rnls and Zbed3, respectively. The modified NIT-1 cells had reduced expression of renalase (Rnls mutants) or zinc finger BED domain-containing protein 3 (Zbed3 mutants). ER stress was induced by thapsigargin, which blocks the sarco/endoplasmic reticulum Ca^2+-ATPase (SERCA) pump on the ER, thus depleting calcium from the ER and leading to misfolding of proteins in ER and eventually ER stress induced cell death. All cells were treated with thapsigargin for 3 days, and cell viability was evaluated by a standard MTT assay (see Mosmann T, J Immunol Methods 65(1-2):55-63 (1983)). […] Thus, inhibiting expression of the Rnls or Zbed3 protected beta cells from cell death induced by ER stress. See FIG. 8 (Rnls) and FIG. 9 (Zbed3).
With `C/C=C(/C)C(=O)O[C@H]1C(C)=C2[C@H]([C@@H]1OC(=O)CCCCCCC)[C@@](C)(OC(C)=O)C[C@H](OC(=O)CCC)[C@@]1(O)[C@H]2OC(=O)[C@@]1(C)O` [thapsigargin] the “beta cell death (cell viability, MTT)” value was “induced beta cell death”.

The compounds below were run on NIT-1 cells (assay: CRISPR/Cas9 whole-genome loss-of-function (LOF) screen: GeCKO library-A infected NIT-1 cells transplanted into NOD.scid mouse with diabetic NOD splenocytes, gRNA sequencing of surviving graft). Conditions: surviving NIT-1 graft of one NOD.scid mouse, ~60 days, severely hyperglycemic; mini-seq.
Format: in vivo
Text: A series of tools to run a CRISPR/Cas9 mediated whole-genome loss-of-function (LOF) screen were developed. The GeCKO V2 lentiviral pooled library was used that comprises guide RNAs (gRNAs) against every gene (Addgene, targeting >20,000 genes with 6 gRNAs/gene). This library was split into two sub-libraries (A and B), which each cover all targeted genes with 3 gRNAs/gene. These libraries cover the entire coding genome to potentially mutate every gene and also contain >1000 non-targeting gRNAs as internal negative controls. In the GeCKO library, Cas9 and gRNAs were incorporated into a single lentiviral vector to introduce these gene-targeting elements into beta cells by lentiviral infection.
A high-stringency LOF screen was done using a single mouse. In this model, 10^7 GeCKO library-A infected NIT-1 cells (multiplicity of infection (MOI)=0.3) were injected subcutaneously, and 10^7 diabetic NOD splenocytes were injected intravenously at the same time.
For sequencing, genomic DNA from explanted grafts was extracted with genome DNA midi prep kits, and the gRNA region was amplified from genomic DNA using established protocols.
Selection pressure (i.e., autoimmune attack) on transplanted NIT-1 cells was maximized by waiting until NOD.scid mice had become severely hyperglycemic (˜60 days, marked by the arrow) as shown in FIG. 4. Even after the blood glucose of one recipient NOD.scid mouse had reached approximately 500 mg/dL, approximately 50,000 cells from the remaining graft could be isolated. gRNAs were amplified from the genome DNA of the graft and surveyed by mini-seq (low-depth sequencing).
Since the GeCKO library (A library) only contain approximately 60,000 unique gRNAs, 10^6-10^7 sequencing reads was sufficient to cover the whole library and to achieve statistical significance. Typically, one high throughput sequencing reaction using the second generation Illumina system (e.g. NextSeq 500) can yield ˜150 millions of sequence reads, so multiple samples from different grafts were barcoded, mixed and sequenced together, thus greatly reducing sequencing costs.
The sequencing data was de-barcoded and then analyzed by bioinformatics analysis. Established analysis tools such as HiTSelect or MAGeCK were used for gRNA enrichment analysis. In sum, the ability to amplify, sequence and sub-clone gRNAs after in vivo selection allowed identification of genes whose suppression improved beta cell survival.
As expected with the high stringency selection, only 13 unique gRNAs that target 12 genes out of >60,000 gRNAs present in pre-implantation cells were identified. The number of times the gRNA was present in sequence (count), the frequency of the gRNA in the total reads, and the gene targeted by the gRNA are shown in Table 2. Two different gRNAs targeting Menl were found in the screen. The target genes in Table 2 encode for mouse SEQ ID Nos: 11-22 in Table 1, and the known human equivalents of these gene products are SEQ ID Nos: 1-10 in Table 1.
In the case of “SEQ ID No: 26: gRNA targeting mouse Lgsn, sequence TGCAACCGCGAACCCTTACC (listed as DNA, chemistry not fully specified)”, the “Count (number of times the gRNA was present in sequence)” value (“Count” below) is reported as 3252 and the “Frequency (% of total reads)” value is reported as 10.80 % of total reads.
In the case of “SEQ ID No: 24: gRNA targeting mouse Hivep2, sequence TACGCACTCATACTGATGTT (listed as DNA, chemistry not fully specified)”, the “Count” value is reported as 4073 and the “Frequency (% of total reads)” value is reported as 13.53 % of total reads.
“SEQ ID No: 27: gRNA targeting mouse GCN1 (Gcn1l1), sequence GCTTGACACTGCATCGATAT (listed as DNA, chemistry not fully specified)” was tested, and the “Count” value was 3228 and the “Frequency (% of total reads)” value was 10.72 % of total reads.
“SEQ ID No: 33: second gRNA targeting mouse Men1, sequence GCTGTATGACCTCGGACATC (listed as DNA, chemistry not fully specified)” was tested, and the “Count” value was 702 and the “Frequency (% of total reads)” value was 2.33 % of total reads.
In the case of “SEQ ID No: 30: gRNA targeting mouse Med11, sequence TTTCACGCTCGATATCCTCC (listed as DNA, chemistry not fully specified)”, the “Count” value is reported as 1346 and the “Frequency (% of total reads)” value is reported as 4.47 % of total reads.
“SEQ ID No: 32: gRNA targeting mouse Zbed3, sequence GCGCGAGGCGGCCCTAATGC (listed as DNA, chemistry not fully specified)” was tested, and the “Count” value was 1160 and the “Frequency (% of total reads)” value was 3.85 % of total reads.
For “SEQ ID No: 35: gRNA targeting mouse Grm2, sequence GCGGCATAACGCCACACCCG (listed as DNA, chemistry not fully specified)”, the “Count” value was 131 and the “Frequency (% of total reads)” value was 0.44 % of total reads.
“SEQ ID No: 28: gRNA targeting mouse Gm3604, sequence ACTTTCGTATACAGATACTG (listed as DNA, chemistry not fully specified)” was tested, and the “Count” value was 3226 and the “Frequency (% of total reads)” value was 10.72 % of total reads.
In the case of “SEQ ID No: 34: gRNA targeting mouse Olfr911-ps1, sequence CTTCAAATGAGATCCACTGC (listed as DNA, chemistry not fully specified)”, the “Count” value is reported as 503 and the “Frequency (% of total reads)” value is reported as 1.67 % of total reads.
“SEQ ID No: 25: gRNA targeting mouse Rnls, sequence CTACTCCTCTCGCTATGCTC (listed as DNA, chemistry not fully specified)” was tested, and the “Count” value was 3810 and the “Frequency (% of total reads)” value was 12.66 % of total reads.
For “SEQ ID No: 23: gRNA targeting mouse Men1, sequence CACGCCCGAGCTGTCCAGTT (listed as DNA, chemistry not fully specified)”, the “Count” value was 4919 and the “Frequency (% of total reads)” value was 16.34 % of total reads.
“SEQ ID No: 31: gRNA targeting mouse Tgm6, sequence CATCGGTGGCTGGGTCCTCC (listed as DNA, chemistry not fully specified)” was tested, and the “Count” value was 1225 and the “Frequency (% of total reads)” value was 4.07 % of total reads.
With “SEQ ID No: 29: gRNA targeting mouse Plin4, sequence CTGCCTCCTTAGTTCCGACA (listed as DNA, chemistry not fully specified)” the “Count” value was 2529 and the “Frequency (% of total reads)” value was 8.40 % of total reads.
